Laboratory results reported in patent US4279926A, “Method of relieving pain and treating inflammatory conditions in warm-blooded animals” (priority 1974, dated 1981).
Where a name gives a salt, the structure may show the parent alone. Values belong to the compound of their own block, whether it stands above or below them.

Key:
[1] = clinical; conditions: human, in vivo, po, Human blood level, single oral dose 500 mg D,L-lysine salt (Table 5) or equivalent 300 mg sodium salt (Table 6), serum, as free acid
Experimental: The blood levels were then determined after 0.5, 1, 1.5, 2, 3, 4 and 5 hours.

[2] = pH of aqueous solution; format: physicochemical
[3] = Solubility; format: physicochemical
[4] = system: pain threshold in the inflamed paw (carrageenin oedema); assay: Pain threshold under pressure of the inflamed (carrageenin) rat paw (analgesic action); conditions: for Pain threshold - carrageenin oedema: Table 3
Experimental: At intervals after the treatment, the size of the treated paw and its sensitivity to pain under pressure were evaluated.

[5] = system: carrageenin oedema, inflamed paw; assay: Carrageenin oedema of the rat paw (anti-inflammatory action, paw size/volume); format: in vivo, male Wistar rats; conditions: oral, Tables 1, 2 and 3
[6] = system: gastro-intestinal mucosa; conditions: in vivo; cited from earlier work

Compound: CC(C)Cc1ccc(C(C)C(=O)[O-])cc1.[Na+] (stereo not drawn)
concentration at 0.5 h ([1]; subject B): 10500 ng/mL | concentration at 0.5 h ([1]; subject C): 3800 ng/mL | concentration at 0.5 h ([1]; subject D): 5500 ng/mL | concentration at 0.5 h ([1]; subject E): 3300 ng/mL | concentration at 1 h ([1]; subject B): 16600 ng/mL | concentration at 1 h ([1]; subject C): 4500 ng/mL | concentration at 1 h ([1]; subject D): 6000 ng/mL | concentration at 1 h ([1]; subject E): 9800 ng/mL | concentration at 1.5 h ([1]; subject B): 11000 ng/mL | concentration at 1.5 h ([1]; subject C): 6000 ng/mL | concentration at 1.5 h ([1]; subject D): 7000 ng/mL | concentration at 1.5 h ([1]; subject E): 8700 ng/mL | concentration at 2 h ([1]; subject A): 900 ng/mL | concentration at 2 h ([1]; subject B): 10300 ng/mL | concentration at 2 h ([1]; subject C): 8700 ng/mL | concentration at 2 h ([1]; subject D): 16300 ng/mL | concentration at 2 h ([1]; subject E): 7900 ng/mL | concentration at 3 h ([1]; subject A): 1300 ng/mL | concentration at 3 h ([1]; subject B): 3000 ng/mL | concentration at 3 h ([1]; subject C): 8700 ng/mL | concentration at 3 h ([1]; subject D): 13600 ng/mL | concentration at 3 h ([1]; subject E): 9600 ng/mL | concentration at 4 h ([1]; subject A): 4200 ng/mL | concentration at 4 h ([1]; subject B): 2700 ng/mL | concentration at 4 h ([1]; subject C): 9600 ng/mL | concentration at 4 h ([1]; subject D): 7300 ng/mL | concentration at 4 h ([1]; subject E): 7000 ng/mL | concentration at 5 h ([1]; subject A): 6300 ng/mL | concentration at 5 h ([1]; subject B): 1400 ng/mL | concentration at 5 h ([1]; subject C): 4300 ng/mL | concentration at 5 h ([1]; subject D): 6900 ng/mL | concentration at 5 h ([1]; subject E): 5300 ng/mL | concentration at 0.5 h ([1]; mean): 8300 ng/mL | concentration at 1 h ([1]; mean): 13600 ng/mL | concentration at 1.5 h ([1]; mean): 11600 ng/mL | concentration at 2 h ([1]; mean): 12700 ng/mL | concentration at 3 h ([1]; mean): 10800 ng/mL | concentration at 4 h ([1]; mean): 7800 ng/mL | concentration at 5 h ([1]; mean): 5400 ng/mL

Compound: CC(C)Cc1ccc(C(C)C(=O)O)cc1 (racemic) [Example 8, D,L-arginine salt of 2-(4-isobutylphenyl)-propionic acid]
pH of aqueous solution [2]: pH close to neutrality | Solubility in water [3]: moderately soluble in water

Compound: CC(C)Cc1ccc(C(C)C(=O)O)cc1 (stereo not drawn) [Example 3]
Analgesic action, intravenous, compared with free acid and phenyl-butazone ([4]; i.v., doses of the order of 10 times less, Table 4): clearly more active and quicker acting than both the free acid and phenyl-butazone | Anti-inflammatory and analgesic action compared with free acid and phenyl-butazone [5]: as active as or more active than the equivalent dose of the corresponding free acid and is as effective as a double dose of phenyl-butazone

Solubility in water [3]: soluble in water
Compound: CC(C)Cc1ccc(CC(=O)O)cc1 [Example 4, lysine salt of 2-(4-isobutyl-phenyl)-acetic acid]

Solubility in water [3]: water-soluble
Compound: O=C(O)Cc1ccccc1Oc1ccc(Cl)cc1Cl [Example 6, lysine salt of 2-(2,4-dichlorophenoxy)-phenyl-acetic acid]

Compound: CC(C)Cc1ccc(C(C)C(=O)O)cc1 (stereo not drawn) [Example 9]
pH of aqueous solution [2]: analogous to those of the product obtained in Example 8 | Solubility in water [3]: analogous to those of the product obtained in Example 8

Solubility in water [3]: moderately soluble in water
Compound: C=CCOc1ccc(CC(=O)O)cc1Cl [Example 10, arginine salt of 2-(3-chloro-4-allyloxyphenyl)-acetic acid]

Solubility in water [3]: moderately soluble in water
Compound: CC(C(=O)O)c1ccc(C2CCCCC2)cc1 (stereo not drawn) [Example 11, arginine salt of 2-(4-cyclohexyl-phenyl)-propionic acid]

Solubility in water [3]: moderately soluble in water
Compound: CC(C(=O)O)c1cccc(Oc2ccccc2)c1 (stereo not drawn) [Example 12, arginine salt of 2-(3-phenoxy-phenyl)-propionic acid]

Compound: CC(C)Cc1ccc(C(C)C(=O)O)cc1 (stereo not drawn) [Ibuprofen]
Pain threshold - carrageenin oedema ([4]; 50 mg/kg p.o. (lysine salt: 30 as active substance), 0 hrs, control 101.7 ± 3.19, 50 mg/kg): 101.0 ± 2.85 g | Pain threshold - carrageenin oedema ([4]; 50 mg/kg p.o. (lysine salt: 30 as active substance), 3 hrs, control 52.7 ± 2.00, **p = 0.01, 50 mg/kg): 85.7 ± 4.05 g | Pain threshold - carrageenin oedema ([4]; 50 mg/kg p.o. (lysine salt: 30 as active substance), 5 hrs, control 51.3 ± 2.15, **p = 0.01, 50 mg/kg): 70.7 ± 3.45 g | Pain threshold - carrageenin oedema ([4]; 100 mg/kg p.o. (lysine salt: 60 as active substance), 0 hrs, control 101.7 ± 3.19, 100 mg/kg): 105.3 ± 3.10 g | Pain threshold - carrageenin oedema ([4]; 100 mg/kg p.o. (lysine salt: 60 as active substance), 3 hrs, control 52.7 ± 2.00, **p = 0.01, 100 mg/kg): 104.3 ± 3.51 g | Pain threshold - carrageenin oedema ([4]; 100 mg/kg p.o. (lysine salt: 60 as active substance), 5 hrs, control 51.3 ± 2.15, **p = 0.01, 100 mg/kg): 80.3 ± 5.66 g | Pain threshold - carrageenin oedema ([4]; 200 mg/kg p.o. (lysine salt: 120 as active substance), 0 hrs, control 101.7 ± 3.19, 200 mg/kg): 101.0 ± 3.21 g | Pain threshold - carrageenin oedema ([4]; 200 mg/kg p.o. (lysine salt: 120 as active substance), 3 hrs, control 52.7 ± 2.00, **p = 0.01, 200 mg/kg): 119.7 ± 3.50 g | Pain threshold - carrageenin oedema ([4]; 200 mg/kg p.o. (lysine salt: 120 as active substance), 5 hrs, control 51.3 ± 2.15, **p = 0.01, 200 mg/kg): 85.7 ± 4.70 g

Compound: CC(=O)Oc1ccccc1C(=O)O [aspirin]
Undesired side-effects (gastro-intestinal intolerance, ulceration) compared with phenyl-alkanoic acids [6]: also show these undesired side-effects in an even more pronounced form
